Assay results: ChEMBL document CHEMBL1201862, “PubChem BioAssay data set” (2004)
Active and inactive are the calls of the source.

Columns and labels:
[1] = tested on: Streptococcus sp. 'group A'; experiment: growth inhibition of control SK(-) GAS strain, dose response, counter-screen for streptokinase expression inhibitor project, luminescence, kanamycin, BacTiterGlo, confirmation (AID 1900); type: functional, organism-based
[2] = target: T1, SUMO-activating enzyme (Homo sapiens, UniProt Q9UBT2); experiment: SUMOylation inhibitor hit validation, confirmation, SUMOylation inhibitor project, biochemical, AlphaScreen (AID 2018); type: functional
[3] = tested on: INS1; experiment: beta cell apoptosis inhibitors, cytokine rescue, dose response, luminescence, retest (AID 449756); type: functional, cell-based; conditions: Rattus norvegicus;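 further: cell death triggered by IL-1 beta plus TNF-alpha plus IFN-gamma mixture; protective hits raise ATP signal compared with cytokine alone wells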
[4] = target: T1, SUMO-activating enzyme; experiment: inhibitors of in vitro SUMOylation cascade, primary screen, biochemical, HTRF, uHTS (AID 2006); type: protein-complex assay
[5] = target: T2, Tyrosyl-DNA phosphodiesterase 2 (Homo sapiens, UniProt O95551); experiment: human TDP2 enzyme inhibitors, dose response, biochemical, epi absorbance, IC50 (AID 743297)
T2 sequence (O95551 whole entry): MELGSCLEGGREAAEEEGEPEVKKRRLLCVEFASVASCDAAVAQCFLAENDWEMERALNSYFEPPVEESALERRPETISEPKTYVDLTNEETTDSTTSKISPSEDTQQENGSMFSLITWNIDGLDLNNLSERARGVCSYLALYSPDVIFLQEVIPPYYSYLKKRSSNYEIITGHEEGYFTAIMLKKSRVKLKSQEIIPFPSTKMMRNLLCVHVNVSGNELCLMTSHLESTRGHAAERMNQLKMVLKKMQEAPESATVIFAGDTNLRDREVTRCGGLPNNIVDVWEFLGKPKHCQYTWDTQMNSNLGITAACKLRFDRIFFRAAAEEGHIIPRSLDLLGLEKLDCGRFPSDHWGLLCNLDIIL

[6] = target: T3, Long-chain-fatty-acid--AMP ligase FadD28 (Mycobacterium tuberculosis, UniProt P9WQ59); experiment: Fluorescence polarization aasay to screen for inhibitors that compete for the binding of FadD28 to a bisubstrate Measured in Biochemical System Using Plate Reader - 2147-01_Inhibitor_Dose_CherryPick_Activity.; type: functional, Mycobacterium tuberculosis H37Rv
T3 sequence (P9WQ59 whole entry): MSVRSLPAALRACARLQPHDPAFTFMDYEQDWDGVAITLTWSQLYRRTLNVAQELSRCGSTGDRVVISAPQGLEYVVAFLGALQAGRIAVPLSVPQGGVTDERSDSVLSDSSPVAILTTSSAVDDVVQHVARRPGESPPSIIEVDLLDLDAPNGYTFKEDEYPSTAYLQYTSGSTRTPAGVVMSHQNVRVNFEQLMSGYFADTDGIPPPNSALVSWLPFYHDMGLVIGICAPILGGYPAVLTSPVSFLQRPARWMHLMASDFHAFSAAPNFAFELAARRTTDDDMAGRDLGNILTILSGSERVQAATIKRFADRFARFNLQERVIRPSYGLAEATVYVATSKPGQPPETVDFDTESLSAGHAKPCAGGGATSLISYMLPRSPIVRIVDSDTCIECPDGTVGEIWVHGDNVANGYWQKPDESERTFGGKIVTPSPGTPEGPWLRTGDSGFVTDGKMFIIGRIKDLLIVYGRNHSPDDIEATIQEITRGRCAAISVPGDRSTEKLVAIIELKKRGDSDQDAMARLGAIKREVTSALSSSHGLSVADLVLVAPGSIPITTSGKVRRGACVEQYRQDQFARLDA

[7] = target: E3 ubiquitin-protein ligase UHRF1 (Homo sapiens, UniProt Q96T88); experiment: Counterscreen for inhibitors of 5-meCpG-binding domain protein 2 (MBD2): TRFRET-based biochemical high throughput dose response assay to identify inhibitors of binding of ubiquitin-like with PHD and ring finger domains 1 (UHRF1) to methylated oligonucleotide.
[8] = target: T4, Replicative DNA helicase DnaB (Mycobacterium tuberculosis, UniProt P9WMR3); experiment: DnaB intein splicing inhibitors, dose response, biochemical, cell-free fluorescence (AID 449749); type: functional
T4 sequence (P9WMR3 whole entry): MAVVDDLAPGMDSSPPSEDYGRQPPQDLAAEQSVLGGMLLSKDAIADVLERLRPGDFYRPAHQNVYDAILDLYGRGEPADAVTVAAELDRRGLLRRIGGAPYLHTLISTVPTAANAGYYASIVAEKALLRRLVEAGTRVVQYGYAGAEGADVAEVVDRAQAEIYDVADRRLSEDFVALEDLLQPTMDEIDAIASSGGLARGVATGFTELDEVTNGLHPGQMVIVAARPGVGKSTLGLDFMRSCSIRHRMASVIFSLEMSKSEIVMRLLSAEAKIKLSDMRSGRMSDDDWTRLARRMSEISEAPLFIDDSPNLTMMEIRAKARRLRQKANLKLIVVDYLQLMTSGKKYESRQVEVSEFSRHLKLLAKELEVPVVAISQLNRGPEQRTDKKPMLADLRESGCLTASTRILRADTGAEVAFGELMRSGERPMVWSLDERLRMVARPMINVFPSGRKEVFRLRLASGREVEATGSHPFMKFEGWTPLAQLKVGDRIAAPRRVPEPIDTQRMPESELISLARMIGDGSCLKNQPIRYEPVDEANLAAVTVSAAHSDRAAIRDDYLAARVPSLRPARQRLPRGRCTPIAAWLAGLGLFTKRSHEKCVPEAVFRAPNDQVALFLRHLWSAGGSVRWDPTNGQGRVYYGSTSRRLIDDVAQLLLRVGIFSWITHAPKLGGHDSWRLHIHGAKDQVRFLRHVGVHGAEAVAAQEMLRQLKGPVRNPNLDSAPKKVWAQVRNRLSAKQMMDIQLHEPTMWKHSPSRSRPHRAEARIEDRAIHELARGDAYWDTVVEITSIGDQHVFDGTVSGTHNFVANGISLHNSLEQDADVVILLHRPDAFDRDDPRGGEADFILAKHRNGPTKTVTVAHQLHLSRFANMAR

[9] = target: T5, Streptokinase A (Streptococcus pyogenes serotype M1, UniProt P10520); experiment: S. pyogenes streptokinase expression inhibitors, potency, dose response, plasminogen activation absorbance, OD405 (AID 1914); type: functional, Streptococcus pyogenes M1 GAS;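 further: secreted streptokinase activity via plasminogen activation per viability signal from cell pellet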
T5 sequence (P10520 whole entry): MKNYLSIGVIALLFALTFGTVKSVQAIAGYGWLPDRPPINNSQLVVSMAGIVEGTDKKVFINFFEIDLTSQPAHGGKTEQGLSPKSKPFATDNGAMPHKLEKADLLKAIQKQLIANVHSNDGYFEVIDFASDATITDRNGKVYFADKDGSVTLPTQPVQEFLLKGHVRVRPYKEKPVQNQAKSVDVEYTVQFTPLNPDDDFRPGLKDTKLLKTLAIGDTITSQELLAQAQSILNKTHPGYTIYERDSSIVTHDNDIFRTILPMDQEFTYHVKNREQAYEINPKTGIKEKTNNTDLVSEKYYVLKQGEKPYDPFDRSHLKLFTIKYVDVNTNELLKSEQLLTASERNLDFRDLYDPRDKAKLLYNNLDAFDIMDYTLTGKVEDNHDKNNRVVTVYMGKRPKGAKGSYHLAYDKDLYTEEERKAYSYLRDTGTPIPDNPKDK

T1 sequence (Q9UBE0 whole entry): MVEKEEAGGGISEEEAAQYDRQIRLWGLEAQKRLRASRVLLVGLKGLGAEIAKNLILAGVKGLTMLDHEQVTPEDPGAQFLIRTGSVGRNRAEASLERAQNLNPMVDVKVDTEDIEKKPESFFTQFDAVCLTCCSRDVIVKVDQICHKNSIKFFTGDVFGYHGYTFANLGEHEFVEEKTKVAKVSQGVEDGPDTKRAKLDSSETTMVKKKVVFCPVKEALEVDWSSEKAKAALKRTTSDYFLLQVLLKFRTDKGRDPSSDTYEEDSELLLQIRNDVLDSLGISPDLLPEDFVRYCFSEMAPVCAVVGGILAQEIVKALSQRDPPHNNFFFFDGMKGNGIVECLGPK
T1 sequence (Q9UBT2 whole entry): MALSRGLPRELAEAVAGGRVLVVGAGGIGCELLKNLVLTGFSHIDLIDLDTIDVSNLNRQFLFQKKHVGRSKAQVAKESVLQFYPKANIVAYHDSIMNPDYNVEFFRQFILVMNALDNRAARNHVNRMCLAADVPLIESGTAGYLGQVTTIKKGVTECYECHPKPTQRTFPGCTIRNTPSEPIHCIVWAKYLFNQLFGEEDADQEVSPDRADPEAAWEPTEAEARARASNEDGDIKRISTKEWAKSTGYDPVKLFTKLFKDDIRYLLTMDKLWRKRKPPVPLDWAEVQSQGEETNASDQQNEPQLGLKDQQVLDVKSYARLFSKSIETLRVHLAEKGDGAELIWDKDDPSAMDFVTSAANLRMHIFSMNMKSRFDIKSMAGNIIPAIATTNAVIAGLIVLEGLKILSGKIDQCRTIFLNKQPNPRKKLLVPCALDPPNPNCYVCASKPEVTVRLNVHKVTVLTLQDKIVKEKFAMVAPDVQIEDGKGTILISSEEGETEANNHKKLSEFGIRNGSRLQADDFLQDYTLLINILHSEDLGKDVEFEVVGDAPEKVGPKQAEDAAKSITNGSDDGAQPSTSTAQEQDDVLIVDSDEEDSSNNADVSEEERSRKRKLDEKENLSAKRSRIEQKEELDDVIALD
Sequence of E3 ubiquitin-protein ligase UHRF1 (Q96T88 whole entry, the tested form may be a part): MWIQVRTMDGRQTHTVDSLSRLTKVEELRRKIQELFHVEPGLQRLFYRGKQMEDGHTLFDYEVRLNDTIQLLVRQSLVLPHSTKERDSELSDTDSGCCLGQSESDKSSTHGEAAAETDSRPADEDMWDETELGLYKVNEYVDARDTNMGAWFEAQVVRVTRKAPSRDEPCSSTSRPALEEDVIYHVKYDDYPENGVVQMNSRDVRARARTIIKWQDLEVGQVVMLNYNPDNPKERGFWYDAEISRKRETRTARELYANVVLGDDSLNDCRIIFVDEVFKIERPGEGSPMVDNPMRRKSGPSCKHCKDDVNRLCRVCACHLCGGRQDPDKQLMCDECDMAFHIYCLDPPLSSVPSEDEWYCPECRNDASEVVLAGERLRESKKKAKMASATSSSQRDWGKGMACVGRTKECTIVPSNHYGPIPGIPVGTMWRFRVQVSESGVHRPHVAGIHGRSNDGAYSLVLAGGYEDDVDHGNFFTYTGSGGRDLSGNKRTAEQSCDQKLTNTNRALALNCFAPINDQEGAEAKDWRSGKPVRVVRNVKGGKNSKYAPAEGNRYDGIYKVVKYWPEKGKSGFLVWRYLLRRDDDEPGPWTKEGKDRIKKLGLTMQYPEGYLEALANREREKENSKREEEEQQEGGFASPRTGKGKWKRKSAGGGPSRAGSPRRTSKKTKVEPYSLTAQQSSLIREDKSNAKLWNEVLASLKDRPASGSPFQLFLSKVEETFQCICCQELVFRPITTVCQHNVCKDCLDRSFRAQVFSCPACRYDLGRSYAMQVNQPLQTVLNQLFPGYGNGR

Question: For CCCCn1c(NS(=O)(=O)c2ccccc2)c(S(=O)(=O)c2ccc(C)cc2)c2nc3ccccc3nc21, which EC50 [1] is on record?
Answer: 3.56 µM (active)

Question: And the IC50 [2]?
Answer: 0.68 µM (active)

Question: And the AC50 [3]?
Answer: 20.5 µM (active)

Question: What about the IC50 [4] of the same molecule?
Answer: 1.83 µM (active)

Question: What about the IC50 [5] of the same molecule?
Answer: 7.83 µM (active)

Question: And the AC50 [6]?
Answer: 46.5 µM (active)

Question: What about the IC50 [7] of the same molecule?
Answer: > 43.8 µM (inactive)

Question: What about the AC50 [8] of the same molecule?
Answer: > 380 µM (inactive)

Question: What about the EC50 [9] of the same molecule?
Answer: 18.2 µM (active)
